Test in all cases: growth of human tumour cells (NCI), 48 h
Assay [1] has as its system NCI/ADR-RES.
Assay [2] concerns Hs-578T.
In assay [3] the test system is LOX IMVI.
In assay [4] the test system is SF-539.
For assay [5], the system named is NCI-H226.
Assay [6] concerns MDA-MB-231.
The subject of assay [7] is PC-3.
The test system of assay [8] is A498.
Assay [9] concerns M14.
In assay [10] the test system is MCF7.
The test system of assay [11] is SW-620.
Assay [12] relates to BT-549.
Assay [13] concerns UACC-62.
Assay [14] deals with MDA-N.

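Protocol summary: plate cells (96-well), add compound at 5 concentrations, incubate 48 h, interpolate endpoints linearly. Here, GI50 denotes the concentration required for 50% inhibition of growth.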 Active and inactive are the calls of the source. Rule as the data show it: active = GI50 up to about 1.1 µM and inactive = higher.

With `O=CN1CCC23CC(O)CCC2C1Cc1cc(Oc2nnnn2-c2ccccc2)cc(O)c13` (configuration not stated), the GI50 was > 100 µM (inactive) in assay [1]; > 100 µM (inactive) in assay [2]; 57.3 µM (inactive) in [3]; > 100 µM (inactive) in assay [4]; > 100 µM (inactive) in assay [5]; > 100 µM (inactive) in [6]. Besides, the GI50 in assay [7] is > 100 µM (inactive); in assay [8] it was 68.4 µM (inactive); in [9], > 100 µM (inactive); in assay [10], 54 µM (inactive); in assay [11], > 100 µM (inactive); in [12], 51.9 µM (inactive). Moreover, the GI50 was 65.2 µM (inactive) in [13] and > 100 µM (inactive) in assay [14].
Take `CN(O)C(=O)CCCC(=O)NCC(C)(C)CNC(=O)CCCC(=O)N(C)O`: the GI50 in assay [1], in [2], in [3], in assay [4], in assay [5] and in assay [6] was > 100 µM (inactive) throughout. Besides, the GI50 in [7], in assay [8], in [9], in [10], in assay [11] and in [13] was > 100 µM (inactive) in each case. Also, the GI50 in assay [14] is > 100 µM (inactive).
Consider `Cc1cc(O)c(C(c2cccnc2)c2c(O)cc(C)[nH]c2=O)c(=O)[nH]1`, for which the GI50 in assay [1], in [2], in assay [3], in [6], in assay [7] and in assay [9] was > 100 µM (inactive) throughout. Besides, the GI50 in assay [10], in [12], in assay [13] and in assay [14] was > 100 µM (inactive) each time.
Take `C=CCn1c(=O)ccn(COCCO)c1=O`: the GI50 in assay [1], in [2], in [3], in assay [4], in assay [5] and in assay [6] was > 100 µM (inactive) each time. For the same compound, the GI50 in assay [7], in [8], in assay [9], in [10], in assay [11] and in [12] was > 100 µM (inactive) each time. The GI50 in assay [14] was > 100 µM (inactive).
For `CN(C)CCNC(=O)c1ccc(NCCCN(C)CCCNc2ccc(C(=O)NCCN(C)C)c3nc4ccccc4c(O)c23)c2c(O)c3ccccc3nc12`, the GI50 is 1.8 µM (inactive) in [1]; 0.0223 µM (active) in assay [2]; < 0.01 µM (active) in assay [3]; 0.274 µM (active) in assay [4]; < 0.0317 µM (active) in assay [5]; 0.111 µM (active) in assay [6]. The GI50 is < 0.01 µM (active) in assay [7]; 0.13 µM (active) in assay [8]; 0.187 µM (active) in [9]; < 0.01 µM (active) in assay [10]; 0.0171 µM (active) in assay [11]; 0.254 µM (active) in [12]. In addition, the GI50 in assay [13] is 0.0525 µM (active).
On to `CCOC(=O)c1cc2c([N+](=O)[O-])c(NC(C)=O)ccc2s1`, for which the GI50 in assay [1] was 55.2 µM (inactive); in [2], 37.8 µM (inactive); in assay [3] it was 60.4 µM (inactive); in assay [4], > 100 µM (inactive); in assay [5], 13.3 µM (inactive); in [6] it was 24.1 µM (inactive). Besides, the GI50 in [7] is 33.5 µM (inactive); in assay [8] it was 29.9 µM (inactive); in assay [9], > 100 µM (inactive); in assay [10], 63 µM (inactive); in [11], > 100 µM (inactive); in assay [12], 72.1 µM (inactive). Also, the GI50 in [13] was 66.7 µM (inactive); in [14], 81.8 µM (inactive).
On to `CCOP(=Nc1ccc(N(C)C)cc1)(OCC)OCC`, for which the GI50 in assay [1], in [2], in assay [6], in [7], in assay [8] and in [9] was > 100 µM (inactive) throughout. Also, the GI50 in assay [10], in assay [12], in [13] and in assay [14] was > 100 µM (inactive) in each case.
Consider `C=CCN1C(=O)/C(=C/c2ccc(OC)cc2)NC1=S`, for which the GI50 in [1] was > 100 µM (inactive); in assay [2], > 100 µM (inactive); in assay [3], 56.1 µM (inactive); in assay [4], > 100 µM (inactive); in assay [5], 37.9 µM (inactive); in assay [6], > 100 µM (inactive). The GI50 in assay [7] is 84.5 µM (inactive); in [8], 60.4 µM (inactive); in assay [9], 53.3 µM (inactive); in assay [10], 40.9 µM (inactive); in assay [11], > 100 µM (inactive); in [12] it was 50.2 µM (inactive). In addition, the figures for the GI50 in assay [13] and in assay [14] were 97.7 µM (inactive) and 33.8 µM (inactive), respectively.
Consider `CC(C)CC(NC(=O)OCc1ccccc1)C(=O)NCCCCC(N)C(=O)NC(CCCCNC(=O)C(CC(C)C)NC(=O)OCc1ccccc1)C(=O)NC(CCCCNC(=O)C(CC(C)C)NC(=O)OCc1ccccc1)C(=O)NC(CCCCNC(=O)C(CC(C)C)NC(=O)OCc1ccccc1)C(=O)NC(CCCCNC(=O)C(CC(C)C)NC(=O)OCc1ccccc1)C(=O)NC(CCCCNC(=O)C(CC(C)C)NC(=O)OCc1ccccc1)C(=O)O` (configuration not stated), for which the GI50 is 88.5 µM (inactive) in assay [3]; > 100 µM (inactive) in [5]; > 100 µM (inactive) in assay [6]; > 100 µM (inactive) in assay [7]; > 100 µM (inactive) in [8]; > 100 µM (inactive) in [10]. Besides, the GI50 in assay [11], in [12], in assay [13] and in assay [14] was > 100 µM (inactive) each time.
For `O=[N+]([O-])C(/C=C(\Cl)[N+](=O)[O-])=C1Nc2ccccc2N1`, the GI50 was > 100 µM (inactive) in [1]; 48.9 µM (inactive) in [2]; 34.8 µM (inactive) in assay [3]; 35.5 µM (inactive) in assay [4]; 43.3 µM (inactive) in [5]; 36.7 µM (inactive) in assay [6]. For the same compound, the GI50 in assay [7] was 46.3 µM (inactive); in assay [8], 24.8 µM (inactive); in assay [9], 60.8 µM (inactive); in [10] it was 39.6 µM (inactive); in assay [11], > 100 µM (inactive); in assay [12] it was 42 µM (inactive). Moreover, the GI50 is 33.4 µM (inactive) in [13] and 59.8 µM (inactive) in [14].
For `O=C1/C(=C/c2ccccc2)NC(=S)N1CN1CCOCC1`, the GI50 in [1], in assay [2], in [3], in assay [5], in assay [6] and in [7] was > 100 µM (inactive) in each case. Moreover, the GI50 is 82.2 µM (inactive) in [8]; > 100 µM (inactive) in assay [9]; > 100 µM (inactive) in [10]; > 100 µM (inactive) in assay [11]; > 100 µM (inactive) in [13]; > 100 µM (inactive) in assay [14].
With `Cc1cccc(/C=C2\CCCc3ccccc3C2=O)c1`, the GI50 in assay [1] is 22.4 µM (inactive); in assay [2] it was 15.8 µM (inactive); in [3] it was 19.3 µM (inactive); in assay [4], 18.7 µM (inactive); in [5], 20.6 µM (inactive); in assay [6] it was 18.5 µM (inactive). Further, the GI50 in assay [7] is 27.2 µM (inactive); in [9] it was 17.9 µM (inactive); in assay [10], 16.9 µM (inactive); in assay [11] it was 16.8 µM (inactive); in assay [12], 24.3 µM (inactive); in [13] it was 14 µM (inactive). Further, in assay [14], the GI50 was 19.8 µM (inactive).
Turning to `Cc1nc2cccc(F)c2c(=O)n1C1CCCCNC1=O` (configuration not stated), the GI50 in assay [1], in assay [2], in assay [3], in [4], in assay [5] and in assay [6] was > 10 µM (inactive) in each case. Moreover, the GI50 in assay [7], in assay [9], in assay [10], in assay [11], in [13] and in assay [14] was > 10 µM (inactive) throughout.
Turning to `CCCCCCCCCCCCCCCCCC(=O)OCC(COC(=O)CCCN)OC(=O)CCCN` (configuration not stated), the GI50 is 19.7 µM (inactive) in assay [1]; 19.2 µM (inactive) in assay [2]; 18.5 µM (inactive) in assay [3]; 18.2 µM (inactive) in assay [4]; 20.6 µM (inactive) in assay [5]; 15 µM (inactive) in assay [6]. In addition, the GI50 in assay [7] is 17.1 µM (inactive); in assay [9], 16.9 µM (inactive); in assay [10], 24.4 µM (inactive); in [11], 19.6 µM (inactive); in [13], 18.2 µM (inactive); in [14], 19.9 µM (inactive).
Consider `c1cc(CN2CCNCCNCCNCC2)cc(CN2CCNCCNCCNCC2)c1`, for which the GI50 in [1], in [2], in assay [3], in assay [4], in assay [5] and in [6] was > 100 µM (inactive) throughout. Further, the GI50 in assay [7], in [9], in [10], in [11], in assay [12] and in [13] was > 100 µM (inactive) throughout. Moreover, the GI50 in [14] was > 100 µM (inactive).

The values above are taken from ChEMBL document CHEMBL1201862, “PubChem BioAssay data set” (2004).
